Measured values published in PMC13210772, “Dual FLT3/MAPK14 Proteolysis-Targeting Chimera (PROTAC) Induces Potent Acute Myeloid Leukemia Cell Death” (Pharmaceuticals, 2026).

What was measured:
[1] = molecular target: T1, FLT3-ITD (Homo sapiens, UniProt P36888, INS600HVDFREYEYD); test: FLT3-ITD degradation, immunoblot in MV4-11 cells; settings: for inhibition at 0.05 µM: MV4-11, 24 h, read-out: % FLT3-ITD Degradation at 50 nM
T1 sequence (P36888 with tags, fused parts or gaps INS600HVDFREYEYD): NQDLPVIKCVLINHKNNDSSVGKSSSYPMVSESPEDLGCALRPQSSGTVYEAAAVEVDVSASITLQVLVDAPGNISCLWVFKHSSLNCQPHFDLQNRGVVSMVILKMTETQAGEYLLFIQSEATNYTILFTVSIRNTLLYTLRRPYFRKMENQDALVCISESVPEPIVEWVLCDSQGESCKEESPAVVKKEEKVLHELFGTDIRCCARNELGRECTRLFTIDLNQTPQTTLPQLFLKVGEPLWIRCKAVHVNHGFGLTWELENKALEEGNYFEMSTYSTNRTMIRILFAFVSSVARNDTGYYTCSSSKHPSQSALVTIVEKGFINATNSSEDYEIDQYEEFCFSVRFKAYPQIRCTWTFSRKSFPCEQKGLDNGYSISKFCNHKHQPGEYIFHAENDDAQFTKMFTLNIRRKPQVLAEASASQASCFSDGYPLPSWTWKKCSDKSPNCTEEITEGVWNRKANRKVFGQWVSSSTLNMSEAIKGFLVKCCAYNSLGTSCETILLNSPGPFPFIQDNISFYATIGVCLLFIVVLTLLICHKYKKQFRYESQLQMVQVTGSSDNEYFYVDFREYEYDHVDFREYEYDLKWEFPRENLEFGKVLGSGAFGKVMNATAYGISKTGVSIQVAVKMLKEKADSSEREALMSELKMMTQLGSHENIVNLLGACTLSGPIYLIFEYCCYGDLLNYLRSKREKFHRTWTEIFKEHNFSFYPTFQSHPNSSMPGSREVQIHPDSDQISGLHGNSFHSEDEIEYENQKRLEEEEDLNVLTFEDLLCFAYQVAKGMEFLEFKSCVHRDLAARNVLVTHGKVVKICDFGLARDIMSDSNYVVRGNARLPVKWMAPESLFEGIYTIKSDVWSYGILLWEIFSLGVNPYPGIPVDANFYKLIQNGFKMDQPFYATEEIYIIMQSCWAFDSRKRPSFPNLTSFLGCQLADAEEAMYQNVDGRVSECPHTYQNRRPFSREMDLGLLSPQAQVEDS

[2] = Non-enzymatic stability under cellular assay conditions (HPLC); format: physicochemical; settings: compound remaining, assay medium DMEM, 37 °C
Protocol: An important aspect in the development of PROTACs is testing chemical stability. On the one hand, we tested all PROTACs produced for their stability under cellular assay conditions. For this purpose, 10 µM solutions of the PROTACs and reference inhibitor were incubated for 72 h at 37 °C with the assay medium DMEM. The remaining amount of the compounds was determined by HPLC after 6, 12, 24, 48 and 72 h. The results of the stability studies are shown in Table S2 (Supplementary Information).
The developed compounds were diluted in the assay media consisting of a mixture of DMEM (50%), DMSO (10%) and acetonitrile (40%) at pH 7.4 and incubated at 37 °C for 72 h. The quantity of the compounds was measured after 6, 12, 24, 48, and 72 h by HPLC using an XTerra RP18 column ([…], 3.9 mm × 100 mm) from the manufacturer Waters (Milford, MA, USA) and two LC-10AD pumps, an SPD-M10AVP PDA detector, and an SIL-HT autosampler, all from the manufacturer Shimadzu (Kyoto, Japan).

[3] = in vitro; settings: CD-1, mouse, liver microsomes, pH 7.4
[4] = Metabolic stability in liver microsomes
[5] = tested on: FLT3-ITD; test: KINOMEscan binding assay
Protocol: Binding to FLT3-ITD was determined using the KINOMEscan^TM assay (Eurofins DiscoverX Corporation, San Diego, CA, USA)
Kinase-tagged T7 phage strains were prepared in an E. coli host derived from the BL21 strain. E. coli were grown to log-phase and infected with T7 phage and incubated with shaking at 32 °C until lysis. The lysates were centrifuged and filtered to remove cell debris. The remaining kinases were produced in HEK-293 cells and subsequently tagged with DNA for qPCR detection. […] The liganded beads were blocked with excess biotin and washed with blocking buffer (SeaBlock (Pierce), 1% BSA, 0.05% Tween 20, 1 mM DTT) to remove unbound ligand and to reduce non-specific binding. […] The compounds were then diluted directly into the assays such that the final concentration of DMSO was 0.9%. All reactions performed in polypropylene 384-well plate. Each was a final volume of 0.02 mL. […] The kinase concentration in the eluates was measured by qPCR.

Structure (SMILES) | 0 h - % [2] [%] | 6 h- % [2] [%] | 12 h- % [2] [%] | 24 h- % [2] [%] | 48 h- % [2] [%] | 72 h- % [2] [%] | inhibition at 0.05 µM [1] [%] | % FLT3-ITD Binding at 1 µM [5] [%] | other results
NS(=O)(=O)OC[C@@H]1C[C@@H](n2ccc3c(N[C@H]4CCc5ccccc54)ncnc32)C[C@@H]1O [MLN4924, reference compound] | – | – | – | – | – | – | – | – | rescue of MA191-mediated degradation ([1]; 50 nM MA191 ± 3 µM MLN4924, 6 h, MV4-11 and MOLM-13 cells): prevented the MA191-mediated degradation of FLT3-ITD as well as MAPK14
Cc1ncsc1-c1ccc([C@H](C)NC(=O)[C@H]2C[C@H](O)CN2C(=O)[C@@H](NC(=O)[C@H]2CC[C@H](C(=O)N3CCC(CCNC(=O)c4cc(Oc5ccc(NC(=O)Nc6cc(C(C)(C)C)on6)cc5)ccn4)CC3)CC2)C(C)(C)C)cc1 [MA224, 4-(4-(3-(5-(tert-Butyl)isoxazol-3-yl)ureido)phenoxy)-N-(2-(1-(trans-4-(((S)-1-((2R,4S)-4-hydroxy-2-(((S)-1-(4-(4-methylthiazol-5-yl)phenyl)ethyl)carbamoyl)pyrrolidin-1-yl)-3,3-dimethyl-1-oxobutan-2-yl)carbamoyl)cyclohexanecarbonyl)piperidin-4-yl)ethyl)picolinamide] | – | – | – | – | – | – | – | – | % FLT3-ITD Degradation at 50 nM ([1]; MV4-11 cells, 50 nM, 24 h): No effect
Cc1ncsc1-c1ccc([C@H](C)NC(=O)[C@@H]2C[C@@H](O)CN2C(=O)[C@@H](NC(=O)CCCCCNC(=O)c2cc(Oc3ccc(NC(=O)Nc4cccc(C(F)(F)F)c4)cc3)ccn2)C(C)(C)C)cc1 [MA43, N-(6-(((S)-1-((2S,4R)-4-Hydroxy-2-(((S)-1-(4-(4-methylthiazol-5-yl)phenyl)ethyl)carbamoyl)-pyrrolidin-1-yl)-3,3-dimethyl-1-oxobutan-2-yl)amino)-6-oxohexyl)-4-(4-(3-(3-(trifluoromethyl)phenyl)ureido)phenoxy)picolinamide] | 100 | 100.1 | 100.3 | 100.5 | 101.0 | 101.2 | 20 | – | FLT3-ITD degradation ([1]; MV4-11 cells, 50 nM, 24 h): no significant degradation
O=C(O)Cc1ccccc1Nc1c(Cl)cccc1Cl [Diclofenac, Diclofenac sodium, reference compound] | – | – | – | – | – | – | – | – | remaining at 10 min, 25 µM [3]: 94.7 ± 1.7%; remaining at 0.5 h, 25 µM [3]: 78%; remaining at 1 h, 25 µM [3]: 73%; remaining at 2 h, 25 µM [3]: 59%; 0 min—Compound Remaining % ([4]; mouse (CD-1) liver microsomes, 25 μM, 0 min): 100%; 30 min—Compound Remaining % ([4]; mouse (CD-1) liver microsomes, 25 μM, 30 min): 79.0 ± 1.3%; 120 min—Compound Remaining % ([4]; mouse (CD-1) liver microsomes, 25 μM, 120 min): 60.8 ± 2.2%; 0 min - compound remaining % ([4]; single runs A and B (Table S3), 0 min): 100%; 10 min - compound remaining % ([4]; single runs A and B (Table S3), 10 min): 96%; 30 min - compound remaining % ([4]; single runs A and B (Table S3), 30 min, listed as Diclofenac_A): 80%
Cc1ncsc1-c1ccc([C@H](C)NC(=O)[C@@H]2C[C@@H](O)CN2C(=O)[C@@H](NC(=O)CCCCCCCNC(=O)c2cc(Oc3ccc(NC(=O)Nc4cccc(C(F)(F)F)c4)cc3)ccn2)C(C)(C)C)cc1 [MA42, N-(8-(((S)-1-((2S,4R)-4-Hydroxy-2-(((S)-1-(4-(4-methylthiazol-5-yl)phenyl)ethyl)carbamoyl)-pyrrolidin-1-yl)-3,3-dimethyl-1-oxobutan-2-yl)amino)-8-oxooctyl)-4-(4-(3-(3-(trifluoromethyl)phenyl)ureido)phenoxy)picolinamide] | 100 | 99.7 | 100.0 | 100.2 | 100.8 | 101.0 | 30 | – | FLT3-ITD degradation ([1]; MV4-11 cells, 50 nM, 24 h): no significant degradation
Cc1ncsc1-c1ccc([C@H](C)NC(=O)[C@@H]2C[C@@H](O)CN2C(=O)[C@@H](NC(=O)CCCCCCNC(=O)c2cc(Oc3ccc(NC(=O)Nc4cc(C(C)(C)C)on4)cc3)ccn2)C(C)(C)C)cc1 [MA77, 4-(4-(3-(5-(tert-Butyl)isoxazol-3-yl)ureido)phenoxy)-N-(7-(((S)-1-((2S,4R)-4-hydroxy-2-(((S)-1-(4-(4-methylthiazol-5-yl)phenyl)ethyl)carbamoyl)pyrrolidin-1-yl)-3,3-dimethyl-1-oxobutan-2-yl)amino)-7-oxoheptyl)picolinamide] | 100 | 99.6 | 99.6 | 99.9 | 100.5 | 100.7 | 80 | 89 ± 2 | –
Cc1ncsc1-c1ccc([C@H](C)NC(=O)[C@@H]2C[C@@H](O)CN2C(=O)[C@@H](NC(=O)CCOCCOCCNC(=O)c2cc(Oc3ccc(NC(=O)Nc4cc(C(C)(C)C)on4)cc3)ccn2)C(C)(C)C)cc1 [MA74, 4-(4-(3-(5-(tert-Butyl)isoxazol-3-yl)ureido)phenoxy)-N-(2-(2-(3-(((S)-1-((2S,4R)-4-hydroxy-2-(((S)-1-(4-(4-methylthiazol-5-yl)phenyl)ethyl)carbamoyl)pyrrolidin-1-yl)-3,3-dimethyl-1-oxobutan-2-yl)amino)-3-oxopropoxy)ethoxy)ethyl)picolinamide] | 100 | 101.4 | 101.4 | 101.8 | 102.6 | 103.1 | 90 | 89 ± 2 | –
Cc1ncsc1-c1ccc([C@H](C)NC(=O)[C@@H]2C[C@@H](O)CN2C(=O)[C@@H](NC(=O)CCCCCNC(=O)c2cc(Oc3ccc(NC(=O)Nc4cc(C(C)(C)C)on4)cc3)ccn2)C(C)(C)C)cc1 [MA78, 4-(4-(3-(5-(tert-Butyl)isoxazol-3-yl)ureido)phenoxy)-N-(6-(((S)-1-((2S,4R)-4-hydroxy-2-(((S)-1-(4-(4-methylthiazol-5-yl)phenyl)ethyl)carbamoyl)pyrrolidin-1-yl)-3,3-dimethyl-1-oxobutan-2-yl)amino)-6-oxohexyl)picolinamide] | 100 | 99.5 | 99.5 | 99.9 | 100.6 | 101.0 | 80 | 89 ± 2 | –
Cc1ncsc1-c1ccc([C@H](C)NC(=O)[C@@H]2C[C@@H](O)CN2C(=O)[C@@H](NC(=O)CCCCCCCNC(=O)c2cc(Oc3ccc(NC(=O)Nc4cc(C(C)(C)C)on4)cc3)ccn2)C(C)(C)C)cc1 [MA73, 4-(4-(3-(5-(tert-Butyl)isoxazol-3-yl)ureido)phenoxy)-N-(8-(((S)-1-((2S,4R)-4-hydroxy-2-(((S)-1-(4-(4-methylthiazol-5-yl)phenyl)ethyl)carbamoyl)pyrrolidin-1-yl)-3,3-dimethyl-1-oxobutan-2-yl)amino)-8-oxooctyl)picolinamide] | 100 | 101.2 | 101.3 | 102.2 | 103.3 | 106.1 | 80 | 84 ± 1 | –
